Reference: ChEMBL document CHEMBL5325405, “Rationally designed donepezil-based hydroxamates modulate Sig-1R and HDAC isoforms to exert anti-glioblastoma effects” (Eur J Med Chem, 2023)
The source made the active and inactive calls. The rule behind the calls is not given here.

Legend:
U-87 MG [1] = assay: cells; format: functional, cell-based, U-87MG ATCC; details: Homo sapiens
Astrocyte = assay: Cytotoxicity against primary astrocyte cells (unknown origin) assessed as reduction in cell growth at 3 uM measured after 3 days by MTT assay; format: toxicity, cell-based; details: 72 h, time 3 day
U-87 MG [2] = assay: Cytotoxicity against human U-87 MG cells assessed as reduction in cell growth at 10 uM measured after 3 days by MTT assay; format: functional, U-87MG ATCC; set-up: scale not given: the % may be the effect or the level left; details: time 3 day
GBM [3] = assay: Antitumor activity against Temozolomide-resistant patient derived GBM cells assessed as reduction in cell growth measured after 3 uM measured after 3 days by MTT assay; format: functional, cell-based; details: Homo sapiens, time 3.0 day
Histone deacetylase 1 = Histone deacetylase 1 (Homo sapiens, UniProt Q13547); assay: Inhibition of human HDAC1
Histone deacetylase 2 = Histone deacetylase 2 (Homo sapiens, UniProt Q92769); assay: Inhibition of human HDAC2
[4] = target: T1, Protein deacetylase HDAC6 (Homo sapiens, UniProt Q9UBN7); assay: Inhibition of human HDAC6
T1 sequence (Q9UBN7 whole entry): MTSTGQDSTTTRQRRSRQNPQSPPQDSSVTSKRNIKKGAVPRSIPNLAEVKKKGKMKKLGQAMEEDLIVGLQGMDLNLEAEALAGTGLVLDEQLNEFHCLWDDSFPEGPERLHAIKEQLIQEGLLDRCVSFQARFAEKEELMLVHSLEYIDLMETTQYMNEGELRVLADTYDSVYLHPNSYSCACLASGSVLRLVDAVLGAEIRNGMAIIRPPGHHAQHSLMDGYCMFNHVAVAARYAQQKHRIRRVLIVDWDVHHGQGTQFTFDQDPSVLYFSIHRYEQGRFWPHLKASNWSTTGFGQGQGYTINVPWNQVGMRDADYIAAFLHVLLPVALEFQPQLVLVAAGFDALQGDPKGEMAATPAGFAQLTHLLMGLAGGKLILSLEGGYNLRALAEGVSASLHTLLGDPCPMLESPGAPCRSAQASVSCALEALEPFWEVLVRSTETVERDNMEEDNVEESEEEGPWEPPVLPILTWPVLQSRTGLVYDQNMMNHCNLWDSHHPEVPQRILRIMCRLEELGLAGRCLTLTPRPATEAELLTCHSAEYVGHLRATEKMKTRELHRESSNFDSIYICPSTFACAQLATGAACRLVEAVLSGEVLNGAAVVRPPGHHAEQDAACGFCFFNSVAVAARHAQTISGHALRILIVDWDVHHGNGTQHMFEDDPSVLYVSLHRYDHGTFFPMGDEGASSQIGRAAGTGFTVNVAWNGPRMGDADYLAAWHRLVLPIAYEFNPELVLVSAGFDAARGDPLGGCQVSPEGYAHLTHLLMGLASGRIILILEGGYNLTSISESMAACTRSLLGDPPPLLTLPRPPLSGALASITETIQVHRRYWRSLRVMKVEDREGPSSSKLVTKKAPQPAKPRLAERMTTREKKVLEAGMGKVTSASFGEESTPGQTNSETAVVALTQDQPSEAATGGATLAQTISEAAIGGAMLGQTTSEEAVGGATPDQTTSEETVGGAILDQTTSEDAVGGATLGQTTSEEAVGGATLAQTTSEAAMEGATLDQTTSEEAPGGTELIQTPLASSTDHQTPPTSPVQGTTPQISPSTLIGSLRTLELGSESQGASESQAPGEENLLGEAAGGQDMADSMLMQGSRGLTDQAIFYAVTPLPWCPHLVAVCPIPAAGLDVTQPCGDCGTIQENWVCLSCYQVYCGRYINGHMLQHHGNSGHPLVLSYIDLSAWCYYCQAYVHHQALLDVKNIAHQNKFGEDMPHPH

Histone deacetylase 8 = target: T2, Histone deacetylase 8 (Homo sapiens, UniProt Q9BY41); assay: Inhibition of human HDAC8
T2 sequence (Q9BY41 whole entry): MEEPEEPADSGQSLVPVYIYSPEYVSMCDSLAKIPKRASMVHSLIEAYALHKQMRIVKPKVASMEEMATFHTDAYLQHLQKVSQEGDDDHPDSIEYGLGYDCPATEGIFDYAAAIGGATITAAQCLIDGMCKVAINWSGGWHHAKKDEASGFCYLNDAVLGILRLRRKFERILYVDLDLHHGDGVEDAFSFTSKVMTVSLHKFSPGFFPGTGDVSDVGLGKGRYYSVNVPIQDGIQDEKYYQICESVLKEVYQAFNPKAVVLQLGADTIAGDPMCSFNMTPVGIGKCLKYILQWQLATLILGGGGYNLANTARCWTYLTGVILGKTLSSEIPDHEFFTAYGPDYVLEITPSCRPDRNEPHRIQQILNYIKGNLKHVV

GBM [5] = assay: Inhibition of colony formation in Temozolomide-resistant patient derived pt 5 GBM cells at 10 uM measured after 3 days by crystal violet staining based analysis; format: functional, cell-based; details: Homo sapiens, time 3.0 day
GBM [6] = assay: Inhibition of colony formation in Temozolomide-resistant patient derived pt 3 GBM cells at 10 uM measured after 3 days by crystal violet staining based analysis; format: functional, cell-based; details: Homo sapiens, time 3.0 day
Glioblastoma stem cell [7] = assay: Antiproliferative activity against Temozolomide-resistant patient derived pt 3 Glioblastoma stem cell sphere assessed as reduction in cell viability at 30 uM measure after 3 days by MTT assay; format: functional, cell-based; details: Homo sapiens, time 3.0 day
Glioblastoma stem cell [8] = assay: Antiproliferative activity against Temozolomide-resistant patient derived pt 5 Glioblastoma stem cell sphere assessed as reduction in cell viability at 30 uM measure after 3 days by MTT assay; format: functional, cell-based; details: Homo sapiens, time 3.0 day
Glioblastoma stem cell [9] = assay: Antiproliferative activity against Temozolomide-resistant patient derived pt 3 Glioblastoma stem cell sphere assessed as reduction in cell viability at 10 uM measure after 3 days by MTT assay; format: functional, cell-based; details: Homo sapiens, time 3.0 day
Glioblastoma stem cell [10] = assay: Antiproliferative activity against Temozolomide-resistant patient derived pt 5 Glioblastoma stem cell sphere assessed as reduction in cell viability at 10 uM measure after 3 days by MTT assay; format: functional, cell-based; details: Homo sapiens, time 3.0 day
A 172 [11] = assay: Induction of cell cycle arrest in human A-172 cells assessed as increase in accumulation of cells at G2/M phase at 10 uM measured after 24 hrs by propidium iodide staining based flow cytometry analysis; format: functional
A 172 [12] = assay: Induction of cell cycle arrest in human A-172 cells assessed as decrease in accumulation of cells at G0/G1 phase at 10 uM measured after 24 hrs by propidium iodide staining based flow cytometry analysis; format: functional
A 172 [13] = assay: Induction of cell cycle arrest in human A-172 cells assessed as decrease in accumulation of cells at S phase at 10 uM measured after 24 hrs by propidium iodide staining based flow cytometry analysis; format: functional
A 172 [14] = assay: Induction of cell cycle arrest in human A-172 cells assessed as accumulation of cells at subG1 phase at 10 uM measured after 48 hrs by propidium iodide staining based flow cytometry analysis; format: functional
A 172 [15] = assay: Upregulation of acetylated H3 k9/k14 expression in human A-172 cells at 1 to 10 uM measured after 8 to 24 hrs by Western blotting analysis; format: functional, cell-based; details: dose 1-10 µM, time 8-24 hrs
A 172 [16] = assay: Upregulation of acetylated tubulin expression in human A-172 cells at 1 to 10 uM measured after 8 to 24 hrs by Western blotting analysis; format: functional, cell-based; details: dose 1-10 µM, time 8-24 hrs
A 172 [17] = assay: Downregulation of PCNA expression in human A-172 cells at 1 to 10 uM measured after 16 hrs by Western blotting analysis; format: functional, cell-based; details: dose 1-10 µM
A 172 [18] = assay: Downregulation of Spl expression in human A-172 cells at 1 to 10 uM measured after 16 hrs by Western blotting analysis; format: functional, cell-based; details: dose 1-10 µM
A 172 [19] = assay: […] caspase-3 expression in human A-172 cells at 1 to 10 uM measured after 16 hrs by Western blotting analysis; format: functional, cell-based; details: dose 1-10 µM
A 172 [20] = assay: Upregulation of acetylated Sig-1R expression in human A-172 cells by immunoblotting analysis; format: functional, cell-based
U-87 MG [21] = assay: Antitumor activity against Temozolomide-resistant human U-87 MG cells xenografted in orthotopic BALB/c mouse assessed as prolongation of animal survival at 10 mg/kg, ip qod; format: functional, organism-based; details: U-87MG ATCC
U-87 MG [22] = assay: Cytotoxicity against human U-87 MG cells assessed as reduction in cell growth at 30 uM measured after 3 days by MTT assay; format: functional, U-87MG ATCC; set-up: scale not given: the % may be the effect or the level left; details: time 3 day
GBM [23] = assay: Inhibition of colony formation in Temozolomide-resistant patient derived pt 3 GBM cells at 3 to 30 uM measured after 3 days by crystal violet staining based analysis; format: functional, cell-based; details: Homo sapiens, dose 3-30 µM, time 3.0 day
GBM [24] = assay: Inhibition of colony formation in Temozolomide-resistant patient derived pt 5 GBM cells at 3 to 30 uM measured after 3 days by crystal violet staining based analysis; format: functional, cell-based; details: Homo sapiens, dose 3-30 µM, time 3.0 day

Sequence of Histone deacetylase 1 (Q13547 whole entry): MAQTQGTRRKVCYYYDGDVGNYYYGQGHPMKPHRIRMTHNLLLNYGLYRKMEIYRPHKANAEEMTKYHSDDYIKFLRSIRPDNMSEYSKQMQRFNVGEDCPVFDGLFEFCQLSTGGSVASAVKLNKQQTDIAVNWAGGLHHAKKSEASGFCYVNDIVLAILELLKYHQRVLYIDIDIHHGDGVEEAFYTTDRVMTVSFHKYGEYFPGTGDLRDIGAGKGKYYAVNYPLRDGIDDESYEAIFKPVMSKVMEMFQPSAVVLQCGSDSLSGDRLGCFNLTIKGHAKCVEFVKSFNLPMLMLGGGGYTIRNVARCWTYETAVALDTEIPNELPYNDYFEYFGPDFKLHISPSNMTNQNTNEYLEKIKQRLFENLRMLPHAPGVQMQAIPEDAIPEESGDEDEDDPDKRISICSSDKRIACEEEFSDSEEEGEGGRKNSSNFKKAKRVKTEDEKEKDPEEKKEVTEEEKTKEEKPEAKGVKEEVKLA
Sequence of Histone deacetylase 2 (Q92769 whole entry): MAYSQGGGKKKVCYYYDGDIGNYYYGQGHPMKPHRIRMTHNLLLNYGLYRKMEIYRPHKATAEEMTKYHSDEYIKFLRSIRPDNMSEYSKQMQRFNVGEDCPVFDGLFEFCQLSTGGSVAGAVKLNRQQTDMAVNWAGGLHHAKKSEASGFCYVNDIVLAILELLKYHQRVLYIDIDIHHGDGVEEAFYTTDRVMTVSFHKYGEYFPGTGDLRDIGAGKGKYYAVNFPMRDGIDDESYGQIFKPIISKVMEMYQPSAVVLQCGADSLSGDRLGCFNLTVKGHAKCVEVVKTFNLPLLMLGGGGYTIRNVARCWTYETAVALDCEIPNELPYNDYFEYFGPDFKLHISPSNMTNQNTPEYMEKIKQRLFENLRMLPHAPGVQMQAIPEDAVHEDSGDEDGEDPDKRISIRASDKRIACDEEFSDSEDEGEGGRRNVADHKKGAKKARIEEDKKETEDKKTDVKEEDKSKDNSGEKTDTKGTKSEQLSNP

SMILES | IC50 (U-87 MG [1]) | Activity (Astrocyte) | Activity (U-87 MG [2]) | Activity (GBM [3]) | IC50 (Histone deacetylase 1) | IC50 (Histone deacetylase 2) | IC50 [4] | IC50 (Histone deacetylase 8) | other results
COc1cc2c(cc1OC)C(=O)C(CC1CCN(Cc3ccc(C(=O)NO)cc3)CC1)C2 (stereo not given) | 46000 nM |  |  |  |  |  |  |  | 
COc1cc2c(cc1OC)C(=O)C(CC1CCN(Cc3ccc(/C=C/C(=O)NO)cc3)CC1)C2 (stereo not given) | 1760 nM | Toxic | 90% | Active | 2430 nM | 500 nM | 239 nM | 113 nM | 
COc1cc2c(cc1OC)C(=O)C(CC1CCN(Cc3ccc(NC(=O)CCCCCCC(=O)NO)cc3)CC1)C2 (stereo not given) | 5780 nM | Non-Toxic | 90% | Active | 313 nM | 710 nM | 2.7 nM | 842 nM | inhibition (GBM [5]): Active; inhibition (GBM [6]): Active; Activity (Glioblastoma stem cell [7]): Active; Activity (Glioblastoma stem cell [8]): Active; Activity (Glioblastoma stem cell [9]): Active; Activity (Glioblastoma stem cell [10]): Active; Activity (A 172 [11]): Active; Activity (A 172 [12]): Active; Activity (A 172 [13]): Active; Activity (A 172 [14]): Active; Activity (A 172 [15]): Active; Activity (A 172 [16]): Active; Activity (A 172 [17]): Active; Activity (A 172 [18]): Active; Activity (A 172 [19]): Active; Activity (A 172 [20]): Active; Activity (U-87 MG [21]): Active
COc1cc2c(cc1OC)C(=O)C(CC1CCN(C(=O)CCCCCCCCC(=O)NO)CC1)C2 (stereo not given) | 29100 nM |  |  |  |  |  |  |  | 
O=C(CCCCCCC(=O)Nc1ccccc1)NO [VORINOSTAT] |  | Toxic |  | Active |  |  |  |  | Activity (A 172 [20]): inactive
COc1cc2c(cc1OC)C(=O)C(CC1CCN(C(=O)CCCCCCC(=O)NO)CC1)C2 (stereo not given) | 8010 nM |  |  |  |  |  |  |  | 
COc1cc2c(cc1OC)C(=O)C(CC1CCN(C(=O)CCCCCCCC(=O)NO)CC1)C2 (stereo not given) | 42800 nM |  |  |  |  |  |  |  | 
COc1cc2c(cc1OC)C(=O)C(CC1CCN(Cc3ccccc3)CC1)C2 (stereo not given) [DONEPEZIL] | 47200 nM |  |  | inactive |  |  |  |  | Activity (U-87 MG [22]): 50%; inhibition (GBM [23]): inactive; inhibition (GBM [24]): inactive; Activity (Glioblastoma stem cell [7]): Active; Activity (Glioblastoma stem cell [8]): Active; Activity (A 172 [20]): inactive
COc1cc2c(cc1OC)C(=O)C(CC1CCN(S(=O)(=O)c3ccc(/C=C/C(=O)NO)cc3)CC1)C2 (stereo not given) | 17000 nM |  |  |  |  |  |  |  | 
COc1cc2c(cc1OC)C(=O)C(CC1CCN(Cc3cccc(NC(=O)CCCCCCC(=O)NO)c3)CC1)C2 (stereo not given) | 4910 nM | Non-Toxic | 90% | Active | 611 nM | 1410 nM | 51.5 nM | 1240 nM | Activity (A 172 [11]): Active; Activity (A 172 [12]): Active; Activity (A 172 [13]): Active; Activity (A 172 [14]): Active
COc1cc2c(cc1OC)C(=O)C(CC1CCN(C(=O)CCCCCC(=O)NO)CC1)C2 (stereo not given) | 43200 nM |  |  |  |  |  |  |  | 
COc1cc2c(cc1OC)C(=O)C(CC1CCN(S(=O)(=O)c3cccc(/C=C/C(=O)NO)c3)CC1)C2 (stereo not given) | 6380 nM |  |  |  | 1670 nM | 3360 nM | 110 nM | 1720 nM | 
COc1cc2c(cc1OC)C(=O)C(CC1CCN(Cc3ccc(NCc4ccc(C(=O)NO)cc4)cc3)CC1)C2 (stereo not given) | 6170 nM | Non-Toxic | 90% | Active |  |  | 49.6 nM | 2150 nM | inhibition (Histone deacetylase 1): inactive; inhibition (Histone deacetylase 2): inactive
